Structures are written as SMILES. Converted amounts (≈) assume the structure as drawn.

Consider 2 molecules from ChEMBL document CHEMBL4184082 (Bioorg Med Chem Lett, 2018).

Data set [1] in a line: AUC (0 to last) in rat at 300 mg/kg measured on day 8. Type of data set: ADME, organism-based. The following applies: in vivo. Also noted: dose 300 mg/kg, time 0 - last.
The test system of data set [2] is Rattus norvegicus. The data set can be described thus: Tumorigenic activity in rat assessed as effect on cell proliferation in non-glandular stomach at 30 mg/kg administered for 14 days measured on post last dose by Ki-67 staining based histopathological analysis relative to control. Type of data set: ADME, organism-based. Conditions: in vivo, 336 h.
The test system of data set [3] is Rattus norvegicus. The data set can be described thus: Tumorigenic activity in rat assessed as effect on cell proliferation in non-glandular stomach at 300 mg/kg administered for 6 days and subsequent treatment at 200 mg/kg for 3 days measured on post last dose by Ki-67 staining based histopathological analysis relative to control. The following applies: in vivo. Type of data set: ADME, organism-based.

Data set [4] concerns Rattus norvegicus. The data set can be described thus: Tumorigenic activity in rat assessed as effect on cell proliferation in non-glandular stomach at 100 mg/kg administered for 14 days measured on post last dose by Ki-67 staining based histopathological analysis relative to control. It is filed as ADME, organism-based. The following applies: in vivo, 336 h.
Data set [5] has as its system Rattus norvegicus. The data set can be described thus: Toxicity in rat assessed as effect on food intake at 300 mg/kg administered for 6 days. Conditions: in vivo, 144 h. Type of data set: organism-based.
Data set [6] concerns Rattus norvegicus. The data set can be described thus: Toxicity in rat assessed as reduction in body weight at 300 mg/kg administered for 6 days. It is filed as organism-based. The following applies: in vivo, 144 h.
Data set [7] is described as follows: AUC (0 to last) in rat at 30 mg/kg. Also noted: dose 30 mg/kg, time 0 - last. It is filed as ADME, organism-based. Conditions: in vivo.
A short description of data set [8]: Thermodynamic solubility of the compound. It is filed as physicochemical. The following applies: read-out: Therm_solubility.
Data set [9] in a line: AUC (0 to last) in rat at 100 mg/kg. Type of data set: ADME, organism-based. On the set-up: dose 100 mg/kg, time 0 - last. The following applies: in vivo.
In the next data set the test system is Mus musculus. The data set can be described thus: Reversal of thermal injury-induced muscle damage in C57BL/6 mouse assessed as reduction in Evans blue dye retention time at 10 mg/kg, po administered once daily via gavage treated for 10 days prior to thermal injury on day 4 and subsequent Evans blue dye injection on day 8 measured on day 9 post last dose relative to control. It is filed as functional. Also noted: scale not given: the % may be the effect or the level left.

Data set [10] is described as follows: AUC (0 to last) in rat at 300 mg/kg. Type of data set: ADME, organism-based. Also noted: dose 300 mg/kg, time 0 - last. Conditions: in vivo.

For `Cc1cc(SCc2sc(-c3ccc(C(F)(F)F)cc3)nc2C)ccc1OCC(=O)O` [GW501516], the figures for the area under the curve AUC(0-t) in data set [1], in [7] and in [9] were 2270 µg·h/mL, 72 µg·h/mL and 613 µg·h/mL, respectively. The Activity in the data set with Rattus norvegicus [2] is reported as 34%; with Rattus norvegicus [3], 190%; in the data set with Rattus norvegicus [4], 81%; with Rattus norvegicus [5] it was “Toxic”; in the data set with Rattus norvegicus [6] it was “Toxic”; with Mus musculus, 48%. The solubility thermodynamic in [8] was determined as 250 µM (≈ 113 µg/mL).
For `C/C(=C\COc1ccccc1CN(C)C(=O)c1ccc(-c2ccco2)cc1)CCC(=O)O`, the area under the curve AUC(0-t) stood at 201 µg·h/mL in data set [10] and 48 µg·h/mL in data set [9].
